Assay results taken from ChEMBL document CHEMBL1132069, “Syntheses of two trimannose analogs each containing C-mannosyl or 5-thio-C-mannosyl residue: their affinities to concanavalin A” (Bioorg Med Chem Lett, 1999).

Test: Dissociation constant for the binding of compound to concanavalin A (Con A) was determined by fluorescence anisotropy inhibition assay.

OC[C@@H]1O[C@H](O[C@@H]2[C@@H](O)[C@@H](O)O[C@@H](CC[C@H]3S[C@@H](CO)[C@@H](O)[C@H](O)[C@H]3O)[C@H]2O)[C@H](O)[C@@H](O)[C@@H]1O
Kd: 31 µM

OC[C@@H]1O[C@H](CC[C@@H]2O[C@H](O)[C@H](O)[C@@H](O[C@H]3O[C@@H](CO)[C@@H](O)[C@H](O)[C@H]3O)[C@@H]2O)[C@H](O)[C@@H](O)[C@@H]1O
Kd: 198 µM
